Reference: patent publication US4003887A, “Novel penicillins and their preparation” (Sumitomo Chemical Company, Limited, priority 1972, dated 1977)
≈ marks a conversion by molar mass, not a printed value.

These compounds were tested on Klebsiella pneumoniae PC1602 (assay: Minimal inhibitory concentration, agar dilution method).
Type: cell-based
Text: When determined according to the agar dilution method, the penicillins (I) afford the minimal inhibitory concentrations against test microorganisms as shown in Table 2.

Structure (SMILES)	MIC [µg/mL]	Minimal inhibitory concentration [µg/mL]
CC1(C)S[C@@H]2[C@H](NC(=O)C(NC(=O)c3cnc4cccnc4c3O)c3ccc(O)cc3)C(=O)N2[C@H]1C(=O)O (mixture of isomers) [Example 2, DL-α-(4-hydroxy-1,5-naphthyridine-3-carboxamido)-p-hydroxybenzylpenicillin]	25	–
CCOC(=O)Oc1ccc(C(NC(=O)c2cnc3ccc(N(C)C)nc3c2O)C(=O)N[C@@H]2C(=O)N3[C@@H]2SC(C)(C)[C@@H]3C(=O)O)cc1 (mixture of isomers) [Example 3, DL-α-(4-hydroxy-6-dimethylamino-1,5-naphthyridine-3-carboxamido)-p-ethoxycarbonyloxybenzylpenicillin]	3.13	–
CC1(C)S[C@@H]2[C@H](NC(=O)C(NC(=O)c3cnc4ccccc4c3O)c3ccc(O)cc3)C(=O)N2[C@H]1C(=O)O (mixture of isomers) [Example 6, DL-α-(4-hydroxyquinoline-3-carboxamido)-p-hydroxybenzylpenicillin]	25	–
CC1(C)S[C@@H]2[C@H](NC(=O)C(C(=O)O)c3ccccc3)C(=O)N2[C@H]1C(=O)O (stereo partly drawn) [Carbenicillin, reference compound]	> 200	–
CC1(C)S[C@@H]2[C@H](NC(=O)[C@H](NC(=O)c3cnc4cccnc4c3O)c3ccc(O)cc3)C(=O)N2[C@H]1C(=O)O [Example 1, D-α-(4-hydroxy-1,5-naphthyridine-3-carboxyamido)-p-hydroxybenzylpenicillin]	12.5 (≈ 23.3 µM)	–
CC(C)(C)C(=O)Oc1ccc([C@@H](NC(=O)c2cnc3ccccc3c2O)C(=O)N[C@@H]2C(=O)N3[C@@H]2SC(C)(C)[C@@H]3C(=O)O)cc1 [Example 4, D-α-(4-hydroxyquinoline-3-carboxamido)-p-pivaloyloxybenzylpenicillin]	12.5 (≈ 20.1 µM)	–
CCOC(=O)Oc1c(C(=O)N[C@@H](C(=O)N[C@@H]2C(=O)N3[C@@H]2SC(C)(C)[C@@H]3C(=O)O)c2ccc(OC(=O)OCc3ccccc3)cc2)cnc2cccnc12 [Example 5, D-α-(4-ethoxycarbonyloxy-1,5-naphthyridine-3-carboxamido)-p-benzyloxycarbonyloxybenzylpenicillin]	12.5 (≈ 16.8 µM)	–
Cc1ccc2c(O)c(C(=O)N[C@@H](C(=O)N[C@@H]3C(=O)N4[C@@H]3SC(C)(C)[C@@H]4C(=O)O)c3ccc(O)cc3)cnc2n1 [Example 7, D-α-(4-hydroxy-7-methyl-1,8-naphthyridine-3-carboxamido)-p-hydroxybenzylpenicillin]	12.5 (≈ 22.7 µM)	–
CC1(C)S[C@@H]2[C@H](NC(=O)[C@H](NC(=O)c3nnc4ccccc4c3O)c3ccc(O)cc3)C(=O)N2[C@H]1C(=O)O [Example 8, D-α-(4-hydroxycinnoline-3-carboxamido)-p-hydroxybenzylpenicillin]	25 (≈ 46.5 µM)	–
CCOC(=O)Oc1ccc([C@@H](NC(=O)c2cnc3cccnc3c2O)C(=O)N[C@@H]2C(=O)N3[C@@H]2SC(C)(C)[C@@H]3C(=O)O)cc1 [Example 9, D-α-(4-hydroxy-1,5-naphthyridine-3-carboxamido)-p-ethoxycarbonyloxybenzylpenicillin]	12.5 (≈ 20.5 µM)	–
CCOC(=O)Oc1ccc([C@@H](NC(=O)c2cnc3cc(Cl)ccc3c2O)C(=O)N[C@@H]2C(=O)N3[C@@H]2SC(C)(C)[C@@H]3C(=O)O)cc1 [Example 10]	3.13 (≈ 4.87 µM)	–
CC1(C)S[C@@H]2[C@H](NC(=O)[C@H](NC(=O)c3cnc4cc(C(F)(F)F)ccc4c3O)c3ccc(O)cc3)C(=O)N2[C@H]1C(=O)O [Example 11]	0.78 (≈ 1.29 µM)	–
CCOC(=O)Oc1ccc([C@@H](NC(=O)c2cnc3ccccc3c2OC(=O)OCC)C(=O)N[C@@H]2C(=O)N3[C@@H]2SC(C)(C)[C@@H]3C(=O)O)cc1 [Example 12]	25 (≈ 36.7 µM)	–
CC1(C)S[C@@H]2[C@H](NC(=O)[C@H](NC(=O)c3cnc4ccccc4c3O)c3cccc(O)c3)C(=O)N2[C@H]1C(=O)O [Example 13]	25 (≈ 46.6 µM)	–
CC1(C)S[C@@H]2[C@H](NC(=O)[C@H](NC(=O)c3cnc4ccccc4c3O)c3ccc(O)c(Cl)c3)C(=O)N2[C@H]1C(=O)O [Example 14]	25 (≈ 43.8 µM)	–
CCOC(=O)Oc1ccc([C@@H](NC(=O)c2cnc3nc(C)ccc3c2O)C(=O)N[C@@H]2C(=O)N3[C@@H]2SC(C)(C)[C@@H]3C(=O)O)cc1 [Example 15]	12.5 (≈ 20 µM)	–
CC1(C)S[C@@H]2[C@H](NC(=O)C(NC(=O)c3cnc4cccnc4c3O)c3cccc(O)c3)C(=O)N2[C@H]1C(=O)O (stereo partly drawn) [Example 16]	25 (≈ 46.5 µM)	–

Structure (SMILES)	MIC [µg/mL]	Minimal inhibitory concentration [µg/mL]
CCOC(=O)Oc1ccc([C@@H](NC(=O)c2cnc3ccc(SC)nc3c2O)C(=O)N[C@@H]2C(=O)N3[C@@H]2SC(C)(C)[C@@H]3C(=O)O)cc1 [Example 17]	3.13 (≈ 4.77 µM)	–
Cc1ccc2ncc(C(=O)N[C@@H](C(=O)N[C@@H]3C(=O)N4[C@@H]3SC(C)(C)[C@@H]4C(=O)O)c3ccc(O)cc3)c(O)c2n1 [Example 18]	12.5 (≈ 22.7 µM)	–
COc1ccc2ncc(C(=O)N[C@@H](C(=O)N[C@@H]3C(=O)N4[C@@H]3SC(C)(C)[C@@H]4C(=O)O)c3ccc(O)cc3)c(O)c2n1 [Example 19]	12.5 (≈ 22 µM)	–
CCOC(=O)Oc1ccc([C@@H](NC(=O)c2cnc3cc([N+](=O)[O-])ccc3c2O)C(=O)N[C@@H]2C(=O)N3[C@@H]2SC(C)(C)[C@@H]3C(=O)O)cc1 [Example 20]	3.13 (≈ 4.79 µM)	–
CC1(C)S[C@@H]2[C@H](NC(=O)[C@H](NC(=O)c3cnc4ccc(O)nc4c3O)c3ccc(O)cc3)C(=O)N2[C@H]1C(=O)O [Example 22]	12.5 (≈ 22.6 µM)	–
CCOC(=O)Oc1ccc([C@@H](NC(=O)c2cnc3ccc(NC(C)=O)nc3c2O)C(=O)N[C@@H]2C(=O)N3[C@@H]2SC(C)(C)[C@@H]3C(=O)O)cc1 [Example 23]	25 (≈ 37.5 µM)	–
CC1(C)S[C@@H]2[C@H](NC(=O)[C@H](NC(=O)c3cnc4ccc(N)nc4c3O)c3ccc(O)cc3)C(=O)N2[C@H]1C(=O)O [Example 24]	12.5 (≈ 22.6 µM)	–
CCOC(=O)Oc1ccc([C@@H](NC(=O)c2cnc3ccc(N(C)C)nc3c2O)C(=O)N[C@@H]2C(=O)N3[C@@H]2SC(C)(C)[C@@H]3C(=O)O)cc1Cl [Example 25]	12.5 (≈ 18.2 µM)	–
CC1(C)S[C@@H]2[C@H](NC(=O)C(NC(=O)c3cnc4cccnc4c3O)c3cccc(O)c3)C(=O)N2[C@H]1C(=O)O (stereo partly drawn) [Example 26]	–	25 (≈ 46.5 µM)
CC1(C)S[C@@H]2[C@H](NC(=O)[C@H](NC(=O)c3cc4ccccc4nc3O)c3ccc(O)cc3)C(=O)N2[C@H]1C(=O)O [Example 27]	12.5 (≈ 23.3 µM)	–
COc1nc(OC)c2c(O)c(C(=O)N[C@@H](C(=O)N[C@@H]3C(=O)N4[C@@H]3SC(C)(C)[C@@H]4C(=O)O)c3ccc(O)cc3)cnc2n1 [Example 28]	12.5 (≈ 20.9 µM)	–
CC1(C)S[C@@H]2[C@H](NC(=O)[C@H](NC(=O)c3cnc4ccncc4c3O)c3ccc(O)cc3)C(=O)N2[C@H]1C(=O)O [Example 29]	25 (≈ 46.5 µM)	–
CC(C)COC(=O)Oc1ccc([C@@H](NC(=O)c2cnc3nc(N(C)C)ncc3c2O)C(=O)N[C@@H]2C(=O)N3[C@@H]2SC(C)(C)[C@@H]3C(=O)O)cc1 [Example 30]	12.5 (≈ 18.3 µM)	–
Cc1nc(C)c2c(O)c(C(=O)N[C@@H](C(=O)N[C@@H]3C(=O)N4[C@@H]3SC(C)(C)[C@@H]4C(=O)O)c3ccc(O)cc3)cnc2n1 [Example 31]	12.5 (≈ 22.1 µM)	–
CC1(C)S[C@@H]2[C@H](NC(=O)[C@H](NC(=O)c3cnc4cccnc4c3O)c3ccc(O)c(Cl)c3)C(=O)N2[C@H]1C(=O)O [Example 32]	25 (≈ 43.7 µM)	–
CCOC(=O)Oc1ccc([C@@H](NC(=O)c2cnc3cn[nH]c3c2O)C(=O)N[C@@H]2C(=O)N3[C@@H]2SC(C)(C)[C@@H]3C(=O)O)cc1 [Example 33]	12.5 (≈ 20.9 µM)	–
